According to article PMC13083723 (Patterns, 2026):

Tested on: Vero-E6 cells
Assay: cells
Type: cell-based
Settings: Chlorocebus sabaeus, Vero C1008, 24 h, read-out: PL_Result

Structure (SMILES)	activation at 10 µM
CCc1c(C(=O)C(N)=O)c2c(OCC(=O)O)cccc2n1Cc1ccccc1 [SPE_K09711437]	-15.1%
N[C@H](CSC(c1ccccc1)(c1ccccc1)c1ccccc1)C(=O)O [SPE_K09774593]	-6.1%
COC(=O)c1ccccc1O [SPE_K10103010]	2.4%
O=C(O)CCCCC(=O)O [SPE_K10656395]	4.52%
CCOC(=O)Nc1ccc2c(c1)N(C(=O)CCN(CC)CC)c1ccccc1S2 [SPE_K10667240]	-10.8%
Nc1ccc(S(=O)(=O)Nc2ccnn2-c2ccccc2)cc1 [SPE_K10671814]	-1.85%
N#Cc1ccc(Cn2cncc2CN2CCN(c3cccc(Cl)c3)C(=O)C2)cc1 [SPE_K10958118]	-5.79%
CN1CCN(c2nc3ccccc3nc2Cl)CC1 [SPE_K11046126]	-4.46%
CCc1cc2c(cc1N1CCC(N3CCOCC3)CC1)C(C)(C)c1[nH]c3cc(C#N)ccc3c1C2=O [SPE_K11267252]	0.894%
CCc1cc2c(c(CC)n1)CCC(=O)N2Cc1ccc(-c2ccccc2-c2nnn[nH]2)cc1 [SPE_K11373525]	-4.91%
Nc1nc(Nc2ccc(S(N)(=O)=O)cc2)nn1C(=O)c1c(F)cccc1F [SPE_K11636097]	-9.77%
C[C@]12CC[C@H](O)C[C@H]1CC[C@@H]1[C@@H]2CC[C@]2(C)[C@@](O)(c3ccoc3)CC[C@]12O [SPE_K11672787]	-0.921%
CCN(CC)Cc1ccc(C(=O)N(CCc2ccccc2OC)[C@@H]2CCNC2)cc1 [SPE_K11821338]	-4.98%
CN(C)CC(=O)Nc1ccc2[nH]c(=O)c3ccccc3c2c1 [SPE_K11853856]	-0.459%
CCC(=O)NO [SPE_K11984358]	-5.92%
CC(=O)Nc1cccc(-n2c(=O)n(C3CC3)c(=O)c3c(Nc4ccc(I)cc4F)n(C)c(=O)c(C)c32)c1 [SPE_K12343256]	-1.89%
Cc1c(N(C)C)c(=O)n(-c2ccccc2)n1C [SPE_K12568846]	-3.72%
Oc1nc(-c2ccc(C(F)(F)F)cc2)nc2c1CSCC2 [SPE_K12762134]	-6.13%
CCc1ccc2c(-c3cccc(Cl)c3)nc(=O)n(CC)c2n1 [SPE_K12932420]	0.000931%
Cc1c(C2CCN(CCc3ccccc3)CC2)noc1-c1ccc(Cl)cc1 [SPE_K13211965]	49%
CCN(CC)Cc1ccc2cc(COC(=O)Nc3ccc(C(=O)NO)cc3)ccc2c1 [SPE_K13810148]	-13.8%

Structure (SMILES)	activation at 10 µM
COc1ccc(C(=O)/C(Cc2cc(OC)c(OC)c(OC)c2)=C(\C(=O)O)c2ccc3c(c2)OCO3)cc1 [SPE_K13826399]	12.9%
CC(=O)C1(N)Cc2c(O)c3c(c(O)c2[C@@H](O[C@H]2C[C@H](O)[C@H](O)CO2)C1)C(=O)c1ccccc1C3=O (some centres unmarked) [SPE_K13843533]	6.95%
CCCc1nc(C)c2c(=O)[nH]c(-c3cc(S(=O)(=O)N4CCN(CC)CC4)ccc3OCC)nn12 [SPE_K13926615]	1%
COc1cc(NS(=O)(=O)c2ccc(N)cc2)ncn1 [SPE_K14116214]	-1.27%
COc1ccc2cc3[n+](cc2c1OC)CCc1cc2c(cc1-3)OCO2 [SPE_K14796088]	-2.9%
O=C(O)c1ccc(-c2c[nH]c3ncc(-c4ccccc4)cc23)cc1C1CCCC1 [SPE_K14991967]	-4.54%
Cc1ccc(S(=O)(=O)/C=C/C#N)cc1 [SPE_K15025317]	-2.64%
CC(C)C[C@H](NC(=O)CNC(=O)c1cc(Cl)ccc1Cl)B1OC(=O)C(CC(=O)O)(CC(=O)O)O1 [SPE_K15203492]	-7.87%
COc1cc2c(cc1C(F)(F)F)N(C(=O)Nc1cc(F)cc(-c3cccnc3)c1)CC2 [SPE_K15424032]	13.1%
Cn1ncc2c(N3CCOCC3)nc(-c3cccc(O)c3)nc21 [SPE_K15858023]	-6.72%
O=C(CC(c1ccccc1)c1ccccc1)N1CCN(C(c2ccccc2)c2ccccc2)CC1 [SPE_K16037980]	-13.7%
CCCCN(CCCC)C(=O)CN1C[C@H](c2ccc3c(c2)OCO3)[C@@H](C(=O)O)[C@@H]1c1ccc(OC)cc1 [SPE_K16295392]	-6.93%
CC(C)c1c(NC(=O)Nc2ccc(Cl)cc2)c(=O)n(-c2ccccc2)n1C [SPE_K16497916]	-9.16%
Cn1c2c(c3ccccc31)CCNCC2 [SPE_K16551401]	7.36%
CN1C(=O)OC(C)(C)C1=O [SPE_K16606819]	-11.7%
c1ccc(-c2n[nH]c3c2oc2ccccc23)cc1 [SPE_K16664969]	-3.59%
CCN1C(=O)CN=C2NC=C(c3ccc(-c4nnc[nH]4)nc3C)N=C21 [SPE_K16755045]	5.12%
CN1CCN(c2nc(C3=C(c4c[nH]c5ccccc45)C(=O)NC3=O)c3ccccc3n2)CC1 [SPE_K16761703]	37.5%
CN1CCN(c2ccc3nc(-c4ccc5nc(-c6ccc(O)cc6)[nH]c5c4)[nH]c3c2)CC1 [SPE_K17026858]	-8.8%
COc1nccnc1NS(=O)(=O)c1ccc(N)cc1 [SPE_K17205817]	-0.746%
